The nature of data set [1]: In vitro dissolution of HPMCAS dispersions (Table 7b, simulated gastric fluid). The format is physicochemical. As to conditions: dose 200 μg/mL, initial ninety minutes. As for the experimental part:
(§1) Samples were weighed, dissolved in the buffer system, centrifuged, and the supernatant analyzed by HPLC at 10, 20, 40, and 90 minutes.
(§2) Tables 7a and 7b and FIG. 6 compares in vitro dissolution performance of Compound A:CAP SDD with that of crystalline of Compound A, HPMCAS-MG, and HPMCAS-HG.

Data set [2] can be described thus: In vivo systemic exposure in male beagle dogs, oral dosing. As to conditions: dog; for AUC(0-t): read-out: AUC0-24 hr. The protocol:
In vivo testing was performed in male dogs to compare the systemic exposure of the 25% Compound A:CAP SDD (n=2) to that of the crystalline Compound A (n=2).

Data set [3] is described as follows: Non-sink dissolution of melt extruded compositions in simulated fasted state intestinal fluid. In kind it is physicochemical. The protocol:
(§3) Solid dispersion formulations of Compound A in Eudragit® E PO (Formulation 2) and Kollidon® VA 64 (Formulation 3) were examined for dissolution behavior under non-sink conditions to assess oral bioavailability enhancement. Studies were conducted in three different media preparations, including: simulated gastric fluid, fed state simulated intestinal fluid and fasted state simulated intestinal fluid, which are presented in Table 2, Table 3 and Table 4 and FIG. 1, FIG. 2 and FIG. 3.

Data set [4] in a line: In vitro dissolution test in NaTC/POPC in PBS (pH 6.5). In kind it is physicochemical. The note with it: theoretical Cmax 200 μg/mL. As for the experimental part:
as §1, §2

The nature of data set [5]: Non-sink dissolution of melt extruded formulations in simulated gastric fluid. The format is physicochemical. The protocol:
as §3

Data set [6] in a line: Non-sink dissolution of melt extruded compositions in simulated fed state intestinal fluid. In kind it is physicochemical. The protocol:
as §3

Data set [7] concerns subjects with pre-diabetes. The data set is described as follows: Phase 1c study C, pharmacodynamics (MMTT/OGTT glucose excursion, fasting glucose). In kind it is in vivo, human. The text has this: (§4) This is a single center, phase 1, double-blind, placebo-controlled, multiple ascending dose study of Compound A given orally as a reformulated tablet (spray dried dispersion, or SDD) to otherwise healthy subjects with “pre-diabetes” (impaired fasting glucose, impaired glucose tolerance, or HbA1C≧5.8), or diet-controlled type 2 diabetes mellitus. The study was designed to evaluate the safety, tolerability, pharmacokinetics (PK), and proof-of-concept pharmacodynamics of Compound A. Each dosing cohort consisted of a screening period to assess eligibility, a dosing and observational period, and a follow-up period.
On Day −2, following a 10 hour overnight fast, up to 15 eligible subjects underwent a baseline MMTT administered between 9:30 and 10:15 am, for the assessment of glucose and insulin response and of total GLP-1 and glucagon. On Day −1, following a 10 hour overnight fast, up to 15 eligible subjects also underwent a baseline OGTT (75 g) administered at the identical time of day as the MMTT, for assessment of the same markers. […] Compound A was measured pre-dose (t −30 and 0 min) on Day 1 and at 20 and 40 minutes, and 1, 2, 3, 4, 6, 8, 12, and 24 hours post-dose. Compound A was measured at identical timepoints associated with the Day 4 dose, but included additional measurements at 48 and 72 hours post-dose (Day 7). […]

Data set [8] can be described thus: Phase 1 multiple ascending dose study, pharmacokinetics. The note with it: human, blood, po, repeat (5) daily doses, mean (±SD); for AUC(0-t): read-out: AUC0-24 h. In kind it is in vivo.
Excerpt: as §4
The screening visit was used to assess preliminary eligibility in potential subjects who provided informed consent. Final eligibility for study enrollment was determined after check-in to the clinic on Day −3, before randomization and dosing (on Day 1). Eleven eligible subjects who successfully completed screening were enrolled into the lowest dose cohort that was yet to be filled, and randomly assigned in a double-blind fashion to receive Compound A (n=8) or matched placebo (n=3). Up to 4 additional subjects were admitted to the clinic and available as back-ups in the event that 1 of the original 11 subjects was not dosed for any reason.
Each of these study cohorts was enrolled and completed independently, and in sequential fashion. After completion of the inpatient observational period at Day 8, blinded clinical safety and laboratory parameters (including PK) were assessed in a teleconference between the Principal Investigator, or Sub-Investigator, and the Metabolex Medical Monitor, after which subject dosing assignments could have been unblinded, if necessary, for determination of dose-limiting toxicities (DLTs). If two dose-limiting toxicities (DLTs) occurred within the same treatment cohort in subjects receiving active drug, no further dose escalation would have been allowed, and the maximum tolerated dose (MTD) would have been defined by the dose in the previous cohort. Additionally, dosing may have been halted at the discretion of the sponsor depending on observed Compound A concentrations and PK parameters from the preceding cohort in context of the safety and pharmacodynamic profile of the preceding cohorts.
On Day −2, following a 10 hour overnight fast, up to 15 eligible subjects underwent a baseline MMTT administered between 9:30 and 10:15 am, for the assessment of glucose and insulin response and of total GLP-1 and glucagon. On Day −1, following a 10 hour overnight fast, up to 15 eligible subjects also underwent a baseline OGTT (75 g) administered at the identical time of day as the MMTT, for assessment of the same markers. After the baseline OGTT assessments, 11 subjects were enrolled and randomized into the current dosing cohort. Up to 4 additional subjects remained overnight to be available as back-ups in the event that 1 of the original 11 subjects was, for any reason, not dosed. If more than 11 eligible subjects meet the cohort requirements, the excess subjects may have been included in the next cohort check-in, if within the 35 day screening window and they continued to meet eligibility. On Days 1 through 5, following a 10 hour overnight fast, subjects received daily doses of Compound A or placebo exactly 2 hours earlier than the start of the baseline MMTT, under fasted conditions. The inpatient period in clinic began on Day −2 and concluded on Day 8, following the final inpatient study procedure. The following assessments were made in temporal relationship to the administration of the study drug, administered at Day 1, Time 0, unless otherwise stated: • Pharmacokinetic Blood and Urine Sampling: • Subjects randomized to Compound A or placebo underwent single dose (Day 1) and repeat dose (Day 4) PK. Compound A was measured pre-dose (t −30 and 0 min) on Day 1 and at 20 and 40 minutes, and 1, 2, 3, 4, 6, 8, 12, and 24 hours post-dose. […]

[9] abbreviates: SDD tablet 25 mg orally once daily.
Where [10] appears, read: SDD tablet 100 mg orally once daily.
[11] abbreviates: SDD tablets 300 mg orally once daily.
Where [12] appears, read: SDD tablets 600 mg orally once daily.

By Cmax is commonly meant the maximum level reached in the sampled fluid or tissue. What is called Tmax is the time from dosing to the highest level. As usually defined, the AUC(0-inf) is the area under the concentration-time curve extrapolated to infinity. The low end stands for less exposure, the high end for more exposure. The half-life is how long it takes for the measured level to halve. Lower therefore signals rapid decline.

In the case of `CCc1cnc(N2CCC(c3nc(COc4ccc(-n5cnnn5)cc4)cs3)CC2)nc1` [Compound A Crystalline, 5-ethyl-2-{4-[4-(4-tetrazol-1-yl-phenoxymethyl)-thiazol-2-yl]-piperidin-1-yl}-pyrimidine], in data set [1], the AUC90 is 1000 µg·min/mL and the Cmax90 is 8000 ng/mL. For the same molecule, in data set [2] (10 mg/kg orally), the Cmax was 560 ng/mL and the AUC(0-t) came to 3.9 µg·h/mL. In data set [2] (200 mg/kg orally), the concentration peaked (Cmax) at 2000 ng/mL and the AUC(0-t) stood at 17 µg·h/mL. In data set [3], this molecule came in with an AUC0-2 hr of 51.205 µg·h/mL, an AUC0-4 hr of 103.281 µg·h/mL, an AUC0-24 hr of 434.380 µg·h/mL and a Cmax of 29891 ng/mL. In data set [3], the Tmax is 0.50 h. Besides, the AUC0-90 in data set [4] (NaTC/POPC in PBS pH 6.5, through 90 minutes) stood at 950 µg·min/mL. Moreover, in data set [4] (NaTC/POPC in PBS pH 6.5, up to 90 min), the “Cmax (μg/mL Compound A)” value turned out to be 12 µg/mL. For the same molecule, in data set [5], the AUC0-2 hr is 321 µg·h/mL, the AUC0-4 hr was 727 µg·h/mL, the AUC0-24 hr is 4494 µg·h/mL and the Cmax is 247000 ng/mL. In addition, the Tmax in data set [5] was 2 h. In data set [6], this molecule showed an AUC0-2 hr of 100.045 µg·h/mL, an AUC0-4 hr of 211.597 µg·h/mL, an AUC0-24 hr of 1148.003 µg·h/mL and a Cmax of 60182 ng/mL. In addition, the Tmax in data set [6] is 2 h.
Take `CCc1cnc(N2CCC(c3nc(COc4ccc(-n5cnnn5)cc4)cs3)CC2)nc1` [Compound A, 5-ethyl-2-{4-[4-(4-tetrazol-1-yl-phenoxymethyl)-thiazol-2-yl]-piperidin-1-yl}-pyrimidine]: in data set [7] (studies conducted to date), the “fasting plasma glucose (FPG) and glucose excursion following MMTT and OGTT” value is recorded as “consistently lowered”. Moreover, the “reduction in glucose, net of placebo” value in data set [7] (subsets of subjects with the greatest degree of glucose intolerance at baseline, pooled, any dose, Phase 1c (study C)) is given as “up to 77%”. For the same molecule, in data set [8] (setting [9]), the AUC(0-inf) was 6.5 µg·h/mL, the time of peak concentration (Tmax) is 5.4 h, the half-life was 14 h and the AUC(0-t) is 4.15 µg·h/mL. Moreover, the peak level in data set [8] (SDD tablet 25 mg orally once daily, subjects with pre-diabetes) (Cmax) was 346 ng/mL. Moreover, in data set [8] (setting [10]), the AUC(0-inf) stood at 24.6 µg·h/mL, the Cmax amounted to 1150 ng/mL, the Tmax amounted to 2.8 h and the half-life was 18.3 h. Also, the AUC(0-t) in data set [8] (setting [10]) stood at 13.3 µg·h/mL. In data set [8] (setting [11]), the AUC(0-inf) turned out to be 45 µg·h/mL, the Cmax worked out at 2330 ng/mL, the Tmax was 2.2 h and the half-life was 15.3 h. For the same molecule, in data set [8] (setting [11]), the AUC(0-t) is 30 µg·h/mL. Besides, in data set [8] (setting [12]), the Cmax stood at 3560 ng/mL, the Tmax stood at 3.3 h and the AUC(0-t) was 57.9 µg·h/mL.

The record behind these values is patent publication US9241924B2, “Compositions of 5-ethyl-2-{4-[4-(4-tetrazol-1-yl-phenoxymethyl)-thiazol-2-yl]-piperidin-1-yl}-pyrimidine” (CYMABAY THERAPEUTICS, INC., priority 2010, dated 2016).
